We go through 1 compound from patent US20180193327A1, “PROPHYLACTIC LEUKOTRIENE INHIBITOR AND IMPLANT DISPLACEMENT THERAPY FOR PREVENTION AND TREATMENT OF CAPSULAR CONTRACTURE IN SILICONE BREAST AUGMENTATION” (priority 2017, published 2018).

The nature of data set [1]: Side effects and discontinuation reported by patients taking leukotriene inhibitors after primary augmentation. Conditions: human, in vivo. The data set is classed as in vivo, patients (women). As for the experimental part:
(§1) Patients that were administered Singulair were treated according to the method described in FIGS. 1 and 2 of the present disclosure. First, patients were evaluated clinically to see if they were a candidate for breast augmentation with physical examination and medical history. The medical history review included discussion and review of liver health, current medications, and potential contraindications or drug interactions with leukotriene inhibitors. Patients were then provided an informed consent for the use of Singulair, 10 mg daily. The informed consent reviewed the potential benefits and risks of this medication which is taken as an off-label indication. Breast augmentation was performed with either smooth or textured silicone or saline implants. On the day following surgery, Singulair therapy is initiated, 10 mg QD. In the first week following surgery, the implant displacement therapy protocol was begun for patients with smooth surface silicone implants. The implant displacement therapy protocol may also be performed, if indicated, for patients with mildly textured breast implants, but not with moderately textured or highly textured devices. Monitoring for side effects from Singulair was conducted by educating patients as to the common side effects and discussing with patients noted side effects. Singulair can be discontinued if the side effects are significant. At thirty days postoperatively, the softness of the breast implants as well as the implant movement and position was evaluated to determine if capsular contracture was present. Two more months of Singulair was prescribed. Following three total months of therapy, the breasts were evaluated for the presence of capsular contracture. Patients without clinical capsular contracture, Baker I and II, were completed with therapy. Patients with clinical capsular contracture, either Baker III or IV, were treated with an additional three months of Singulair therapy as prescribed with the continuation of implant displacement therapy protocol. If patients declined to take Singulair or had side effects from the medication, implant displacement therapy protocol was continued and patients were offered 800 units-1000 units of Vitamin E daily in lieu of Singulair.
Patients that were administered Accolate were treated according to the method described in FIGS. 1 and 2 of the present disclosure. First, patients were evaluated clinically to see if they were a candidate for breast augmentation with physical examination and medical history. The medical history review included discussion and review of liver health, current medications, and potential contraindications or drug interactions with leukotriene inhibitors. Patients were then provided an informed consent for the use of Accolate (Zafirlukast), 20 mg twice daily. Patients were counseled to take the medication at least one hour before meals. The informed consent reviews the potential benefits and risks of this medication which is taken as an off-label indication. Breast augmentation was performed with either smooth or textured silicone or saline implants. On the day following surgery, Accolate therapy was initiated, 20 mg BID. In the first week following surgery, the implant displacement therapy protocol was begun for patients with smooth surface silicone implants. The implant displacement therapy protocol may also be performed, if indicated, for patients with mildly textured breast implants, but not with moderately textured or highly textured devices. […]

The subject of data set [2] is capsular contracture in patients undergoing primary silicone gel breast augmentation. The data set can be described thus: Capsular contracture (Baker scale) at one year after primary silicone gel breast augmentation, retrospective review. The data set is classed as in vivo, patients (women). How it is done:
The study was performed with a retrospective review of 1122 consecutive women undergoing primary, silicone gel breast augmentation. Over time, the author added leukotriene inhibitor therapy to the postoperative treatment of patients. The first group of patients were treated without leukotriene therapy. Consecutive patients agreeing to the off-label use of leukotriene inhibitors were then studied. The second group of consecutive patients was offered Singulair therapy postoperatively while all other aspects of the surgical technique and care remained the same. Finally, the author offered Accolate therapy to the final group of patients undergoing breast augmentation.
Patients chose augmentation with either a periareolar or inframammary approach. Silicone breast augmentation procedures were performed using a standardized, dual plane technique. All patients were treated with preoperative intravenous antibiotics, either a one-gram dose of cephazolin or 600 mg of clindamycin, selected based on allergy profiles. Prior to insertion of implants, triple-antibioic irrigation (50,000 U bacitracin, 1 g Ancef, 80 mg gentamicin) with the addition of 50 ml of povidone-iodine in 500 ml of normal saline was utilized. All implants were placed with power-free glove changes, and inserted through a skin barrier/nipple shield using Tegaderm dressings. The implant displacement therapy protocol was initiated on post-operative day two.
as §1
Patients that were administered Accolate were treated according to the method described in FIGS. 1 and 2 of the present disclosure. First, patients were evaluated clinically to see if they were a candidate for breast augmentation with physical examination and medical history. […]

The mark [3] stands for this setting: one year following silicone gel breast augmentation.

Take `CC(C)(O)c1ccccc1CC[C@@H](SCC1(CC(=O)O)CC1)c1cccc(/C=C/c2ccc3ccc(Cl)cc3n2)c1` [Singulair, Montelukast]: the “Percentage of patients discontinuing the medication because of (minor) side effects or cost” value in data set [1] (female, 3 months) is 2.5%. Moreover, the “Common side effects reported by patients” value in data set [1] is on record as “headache, GI symptoms, fatigue, rash”. The “% of Patients with Capsular Contracture” value in data set [2] (one year following primary silicone gel breast augmentation, Baker grade III or IV, three months therapy plus implant displacement protocol) is recorded as 3.27%. Further, in data set [2] (setting [3]), the “Percentage of patients demonstrating capsular contracture, inframammary incision” value is on record as 2.08%; the “Percentage of patients demonstrating capsular contracture, periareolar incision” value worked out at 3.81%; the “Percentage of patients demonstrating capsular contracture, total (both incisions)” value is 3.27%.
